We go through four compounds from BindingDB's records for doi:10.1016/s1074-5521(98)90086-2 (Duke University, 1998).

1-aminocyclopropane-1-carboxylate oxidase 1, sequence (Q00985 whole entry): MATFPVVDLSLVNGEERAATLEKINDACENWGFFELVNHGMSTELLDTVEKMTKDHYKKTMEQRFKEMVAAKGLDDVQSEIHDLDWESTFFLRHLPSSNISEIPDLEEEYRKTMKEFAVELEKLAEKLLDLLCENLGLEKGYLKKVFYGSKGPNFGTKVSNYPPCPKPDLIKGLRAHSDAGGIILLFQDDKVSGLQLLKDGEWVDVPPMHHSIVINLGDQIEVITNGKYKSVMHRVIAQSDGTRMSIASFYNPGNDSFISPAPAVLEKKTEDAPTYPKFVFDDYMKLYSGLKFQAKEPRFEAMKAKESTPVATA

For this assay, the target named is 1-aminocyclopropane-1-carboxylate oxidase 1 (Malus domestica, UniProt Q00985). Kind of assay: Inhibition Assay. An excerpt:
Enzyme inhibition assay using ethylene-forming enzyme (EFE).
One may read the Ki as the equilibrium dissociation constant of an inhibitor or competing ligand from its target. On to `CC(C)(N)C(=O)O` [Aminoisobutyric (AIB)], for which the Ki was 150 µM. Under `NC1(C(=O)O)CCC1` [Aminocyclobutanecarboxylic acid (ACBC)] stands 220 µM. On to `CC(C)(NO)C(=O)O` [N-hydroxy aminoisobutryic acid], for which the affinity, expressed as Ki, was 13 µM. With `O=C(O)C1(NO)CCC1` [N-Hydroxyaminocyclobutanecarboxylic acid], the Ki turned out to be 18 µM.
